Data set [1] has as its target T1, extracellular domain of VEGFR-1 (Homo sapiens, UniProt P17948).
T1 construct: the extracellular domain of VEGFR-1; purchased R&D Systems
Description: Chemiluminescent assay: inhibition of biotinylated VEGF165 binding to isolated VEGFR-1. The conditions noted are these: peptide at 500 μM; chemiluminescence read-out. An excerpt:
A chemiluminescent assay to determine the inhibition of complex formation between VEGF-A (isoform VEGF165) and the extracellular domain of VEGFR-1 (Goncalves et al., [2007]; García-Aranda et al., [2013]) had been previously employed in our group (Zanella et al., [2015]). VEGF-C (from which analogue 1 was derived) is not selective for VEGFR-1 (Su et al., [2007]), but unfortunately the same assay protocol turned out to be ineffective with VEGFR-2, at least in our hands. The assay based on VEGFR-1 was therefore applied here as a very stringent test of the affinity of our peptides for VEGFRs, and to assess the different peptides comparatively. All peptides were able to inhibit complex formation (Table 3), although in the high micromolar range. […] Further studies were focused on analogues 5 and 6, considering also the higher stability of their secondary structure, which affects resistance to proteolytic degradation.
The chemiluminescent screening assay for the detection of VEGFR-1 ligands was accomplished according to the procedure described in the Supporting Information. […]
horseradish peroxidase diluted at 1:1000 in PBS containing 0.1% (v/v) Tween 20 and 0.3% (w/v) BSA were added per well. Af ter 1 h of incubation at r.t., the plate was washed f ive times with 150 μL of buffer A and 100 μL of SuperSignal W est Pico Chemiluminescent Substrate (Pierce, Rockford, IL, USA) were added. The remaining bt-VEGF165 was detected by chemiluminescence, which was quantif ied with a Synergy™ HT Multi -Detection Microplate Reader (BioTek Instruments, Inc.). The percentages of btVEGF165 displacement were calculated by the following formula: percentage of displacement = 100×[1−( S−NS) / (MS−NS)], where S is the signal measured, NS is the nonspecific binding signal and MS is the maximum binding signal observed with btVEGF165 without tested compounds. […]
loading: 0.5 mmol/g) were used.
Each coupling step consisted in:
1) activation of the Fmoc-protected amino acid;
2) addition of the activated amino acid to the resin at the synthesizer to start the coupling; 3) steps of capping, deprotection and washing.
To perform the automated SPPS, two solutions and two solvents were prepared: 25% Ac2O in DMF (v/v), 25% piperidine in DMF (v/v), methanol and DMF. W hile MeOH was used only as washing solvent, DMF was necessary either for washings and as solvent for the reactions of coupling, capping and deprotection. […]

Data set [2] deals with T1, extracellular domain of VEGFR-1. The conditions noted are these: chemiluminescent VEGFR-1 ligand screening assay; ref Zanella et al., 2015; read-out: IC50 of unlabeled VEGF165 (reference compound); cited from earlier work. From the text:
The chemiluminescent screening assay for the detection of VEGFR-1 ligands was accomplished according to the procedure described in the Supporting Information.

The test system of data set [3] is trypsin. As to the kind of experiment: Resistance to proteolytic degradation, trypsin. In kind it is in vitro ADME. Conditions: Tris·HCl 50 mM pH 7.8, 37°C, RP-HPLC C18 read-out. How it is done:
(§1) The proteolytic stability of peptides 1, 5, and 6 was assessed against three enzymes: pronase, trypsin and chymotrypsin (Sigma-Aldrich). Each peptide was dissolved in the appropriate buffer [i.e., (2-amino-2-hydroxymethyl-propane-1,3-diol (Tris)·HCl 20 mM, containing 20 mM CaCl2 pH 7.6 for pronase; Tris·HCl 50 mM, pH 7.8 for trypsin and chymotrypsin). Then, it was incubated with and without the enzyme solution (1.25 μg of enzyme in […] buffer) at 37°C for 12 h. The mixture was analyzed by RP-HPLC (column: Phenomenex Jupiter 5 μ C18 300 Å) every ten minutes for the first hour, then every half hour. Gradients: 5–25%B in 10 min for peptide 1; 15–35%B in 10 min for peptide 5; 15–25%B in 10 min for peptide 6. Eluants: A, H2O:CH3CN 9/1 + 0.05% trifluoroacetic acid (TFA); B: CH3CN:H2O 9/1 + 0.05% TFA.

Data set [4] concerns pronase. As to the kind of experiment: Resistance to proteolytic degradation, pronase. In kind it is in vitro ADME. Conditions: Tris·HCl 20 mM with 20 mM CaCl2 pH 7.6, 37°C, RP-HPLC C18 read-out. As for the experimental part: as §1
In data set [5] the test system is chymotrypsin. Description: Resistance to proteolytic degradation, chymotrypsin. In kind it is in vitro ADME. The conditions noted are these: Tris·HCl 50 mM pH 7.8, 37°C, RP-HPLC C18 read-out. As for the experimental part:
as §1

Square brackets hold non-standard residues; d marks the D form. Peptide text beside a SMILES is read from it. Aib = CC(C)(N)C(=O)O

T1 sequence (P17948 27-758 limits assumed): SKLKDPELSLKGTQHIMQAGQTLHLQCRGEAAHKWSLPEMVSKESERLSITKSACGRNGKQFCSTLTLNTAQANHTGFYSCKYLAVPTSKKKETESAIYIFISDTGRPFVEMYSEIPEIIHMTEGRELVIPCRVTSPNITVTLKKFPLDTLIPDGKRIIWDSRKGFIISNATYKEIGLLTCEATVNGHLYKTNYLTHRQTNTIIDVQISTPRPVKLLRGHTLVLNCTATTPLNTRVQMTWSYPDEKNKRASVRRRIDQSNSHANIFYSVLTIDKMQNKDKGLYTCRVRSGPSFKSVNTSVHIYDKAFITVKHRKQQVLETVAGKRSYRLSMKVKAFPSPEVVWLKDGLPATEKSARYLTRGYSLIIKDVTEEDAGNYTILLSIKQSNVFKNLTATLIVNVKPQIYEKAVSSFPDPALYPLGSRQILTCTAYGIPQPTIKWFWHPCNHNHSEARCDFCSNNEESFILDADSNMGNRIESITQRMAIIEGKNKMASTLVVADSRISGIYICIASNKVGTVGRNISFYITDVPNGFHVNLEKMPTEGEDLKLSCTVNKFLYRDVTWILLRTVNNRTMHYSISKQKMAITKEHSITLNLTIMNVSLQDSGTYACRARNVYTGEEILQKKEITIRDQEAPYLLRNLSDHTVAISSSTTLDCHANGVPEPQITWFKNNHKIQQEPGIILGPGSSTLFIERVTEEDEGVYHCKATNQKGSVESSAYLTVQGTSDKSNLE

For the molecule `CC[C@H](C)[C@H](NC(=O)C(C)(C)NC(C)=O)C(=O)N[C@@H](CC(=O)O)C(=O)N[C@@H](CC(N)=O)C(=O)NC(C)(C)C(=O)N[C@@H](Cc1c[nH]c2ccccc12)C(=O)N[C@@H](CCCNC(=N)N)C(=O)N[C@@H](CCCCN)C(=O)NC(C)(C)C(=O)N[C@@H](CCC(N)=O)C(N)=O` [Peptide 3, Ac-Aib-Ile-Asp-As n -Aib-Trp-Arg -Lys-Aib-Gln-amide] (Ac-[Aib]IDN[Aib]WRK[Aib]Q-NH2), the inhibition at 500 µM in data set [1] was determined as 86 ± 1%.
With “VEGF165: VEGF-A isoform VEGF165, unlabeled, employed as reference compound in the VEGFR-1 assay”, in data set [2], the IC50 was 0.146 nM.
Regarding “Ac-IDNEWRKTQ-NH2 [Peptide 1, Ac-Ile-Asp-Asn-Glu-Trp-Arg -Lys-T hr -Gln-amide]”, the “time within which peptide was degraded by trypsin” value in data set [3] is recorded as at most 15 min. The “time within which peptide was degraded by pronase” value in data set [4] is listed as at most 15 min. Besides, the “time within which peptide was degraded by chymotrypsin” value in data set [5] is listed as at most 15 min. In addition, the inhibition at 500 µM in data set [1] was found to be 27 ± 1%.
Take `CC(=O)NC(C)(C)C(=O)N[C@@H](Cc1c[nH]c2ccccc12)C(=O)N[C@@H](CC(=O)O)C(=O)N[C@@H](CC(N)=O)C(=O)NC(C)(C)C(=O)N[C@@H](Cc1c[nH]c2ccccc12)C(=O)N[C@@H](CCCNC(=N)N)C(=O)N[C@@H](CCCCN)C(=O)NC(C)(C)C(=O)N[C@@H](Cc1c[nH]c2ccccc12)C(N)=O` [Peptide 4, Ac-Aib-Trp- Asp-Asn-Aib-Trp- Arg -Lys-Aib-Trp-amide] (Ac-[Aib]WDN[Aib]WRK[Aib]W-NH2): in data set [1], the inhibition at 500 µM came out at 40 ± 10%.
Still for that read-out and setting: the figure for Ac-WDNEWRKTW-NH2 [Peptide 2] is 29 ± 7%.

The values above are taken from PMC6449863, “Rational Design of Antiangiogenic Helical Oligopeptides Targeting the Vascular Endothelial Growth Factor Receptors” (Frontiers in Chemistry, 2019).
